Calls of active or inactive are those of the source.
Key:
[1] = Luminescence Cell-Based Dose Retest to Confirm Inhibitors of Cancer Stem Cells. [Related pubchem assays (depositor defined):AID2717, AID2721]; type: functional; conditions: Homo sapiens
[2] = target: T1, Calpain-2 catalytic subunit (Sus scrofa, UniProt P43367); experiment: pig calpain II inhibitor potency, dose response, biochemical, fluorogenic peptide substrate (AID 1420); type: functional
T1 sequence (P43367 whole entry): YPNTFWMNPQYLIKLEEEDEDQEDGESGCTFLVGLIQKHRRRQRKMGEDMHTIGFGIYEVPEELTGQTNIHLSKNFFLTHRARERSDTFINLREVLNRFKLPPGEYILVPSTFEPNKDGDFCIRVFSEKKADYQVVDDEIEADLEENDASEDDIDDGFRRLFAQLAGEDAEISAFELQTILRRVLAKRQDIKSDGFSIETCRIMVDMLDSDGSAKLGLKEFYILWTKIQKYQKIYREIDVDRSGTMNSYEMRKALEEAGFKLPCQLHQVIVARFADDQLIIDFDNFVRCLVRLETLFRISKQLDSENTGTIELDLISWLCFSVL

Protein skinhead-1 = target: T2, Protein skinhead-1 (Caenorhabditis elegans, UniProt P34707); type: functional
T2 sequence (P34707 whole entry): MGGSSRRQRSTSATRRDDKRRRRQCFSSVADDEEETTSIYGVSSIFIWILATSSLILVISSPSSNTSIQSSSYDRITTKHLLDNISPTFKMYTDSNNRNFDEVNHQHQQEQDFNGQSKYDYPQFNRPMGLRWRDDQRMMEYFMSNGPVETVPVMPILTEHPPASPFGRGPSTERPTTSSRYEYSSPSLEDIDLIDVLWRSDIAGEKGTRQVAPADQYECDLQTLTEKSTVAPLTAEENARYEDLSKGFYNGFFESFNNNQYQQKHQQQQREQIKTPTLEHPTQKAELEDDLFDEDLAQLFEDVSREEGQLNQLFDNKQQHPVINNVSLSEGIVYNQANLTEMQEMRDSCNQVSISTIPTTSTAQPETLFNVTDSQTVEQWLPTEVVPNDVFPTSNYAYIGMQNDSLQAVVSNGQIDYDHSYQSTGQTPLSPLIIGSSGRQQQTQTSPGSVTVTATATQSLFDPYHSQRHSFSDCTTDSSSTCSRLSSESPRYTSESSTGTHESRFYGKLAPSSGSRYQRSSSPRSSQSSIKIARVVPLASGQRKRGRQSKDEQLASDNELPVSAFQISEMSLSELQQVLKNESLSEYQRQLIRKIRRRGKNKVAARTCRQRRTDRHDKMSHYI

[3] = target: T3, Heat shock factor protein 1 (Mus musculus, UniProt P38532); experiment: inhibition of MG132-induced HSE-luciferase signal, confirmation, cell-based, NIH3T3, luminescence, dose retest (AID 2382); type: functional;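 also: NIH3T3 fibroblasts with HSF1-driven luciferase reporter stressed by proteasome inhibitor MG132; luminescence from HSF1-driven luciferase expression after 8 hours of MG132 stress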
T3 sequence (P38532 whole entry): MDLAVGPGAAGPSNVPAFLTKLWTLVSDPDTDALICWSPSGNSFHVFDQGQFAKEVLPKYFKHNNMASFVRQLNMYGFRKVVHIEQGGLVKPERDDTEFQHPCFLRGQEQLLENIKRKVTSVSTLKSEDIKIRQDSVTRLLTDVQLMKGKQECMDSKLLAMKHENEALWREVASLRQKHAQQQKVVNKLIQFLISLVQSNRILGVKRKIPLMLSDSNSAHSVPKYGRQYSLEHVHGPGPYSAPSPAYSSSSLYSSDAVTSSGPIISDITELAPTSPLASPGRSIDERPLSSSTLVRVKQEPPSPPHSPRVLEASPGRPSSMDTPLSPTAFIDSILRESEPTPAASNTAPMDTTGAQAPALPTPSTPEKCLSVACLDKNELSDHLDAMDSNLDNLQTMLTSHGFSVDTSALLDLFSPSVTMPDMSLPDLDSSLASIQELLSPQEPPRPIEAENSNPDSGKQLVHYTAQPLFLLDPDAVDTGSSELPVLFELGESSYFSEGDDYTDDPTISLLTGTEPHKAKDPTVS

[4] = Luminescence Cell-Based Dose Confirmation HTS to Identify Inhibitors of Platelet Dense Granule Release. [Related pubchem assays: 1663 (Primary HTS), 1678 (Summary of Project)]; type: functional
[5] = target: Luciferin 4-monooxygenase (Photinus pyralis, UniProt P08659); experiment: firefly luciferase enzyme inhibitors, dose response, biochemical, luminescence (AID 1891)
Luciferin 4-monooxygenase, sequence (P08659 whole entry): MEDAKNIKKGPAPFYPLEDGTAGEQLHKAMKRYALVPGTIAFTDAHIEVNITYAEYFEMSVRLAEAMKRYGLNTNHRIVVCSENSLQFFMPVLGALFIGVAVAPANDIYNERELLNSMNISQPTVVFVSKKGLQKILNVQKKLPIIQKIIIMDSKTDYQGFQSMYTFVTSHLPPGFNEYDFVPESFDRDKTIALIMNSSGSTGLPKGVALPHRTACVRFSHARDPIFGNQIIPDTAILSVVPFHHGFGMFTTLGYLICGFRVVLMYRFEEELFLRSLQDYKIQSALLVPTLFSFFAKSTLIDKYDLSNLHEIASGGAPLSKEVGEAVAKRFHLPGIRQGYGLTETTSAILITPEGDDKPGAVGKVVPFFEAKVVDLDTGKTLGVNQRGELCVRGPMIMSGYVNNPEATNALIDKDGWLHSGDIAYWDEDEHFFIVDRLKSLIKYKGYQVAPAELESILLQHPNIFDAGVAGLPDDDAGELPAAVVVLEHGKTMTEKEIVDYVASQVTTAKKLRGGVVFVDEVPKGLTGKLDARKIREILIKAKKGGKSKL

Streptokinase A = target: T4, Streptokinase A (Streptococcus pyogenes serotype M1, UniProt P10520); experiment: S. pyogenes streptokinase expression inhibitors, potency, dose response, plasminogen activation absorbance, OD405 (AID 1914); type: functional, Streptococcus pyogenes M1 GAS;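 also: secreted streptokinase activity via plasminogen activation per viability signal from cell pellet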
T4 sequence (P10520 whole entry): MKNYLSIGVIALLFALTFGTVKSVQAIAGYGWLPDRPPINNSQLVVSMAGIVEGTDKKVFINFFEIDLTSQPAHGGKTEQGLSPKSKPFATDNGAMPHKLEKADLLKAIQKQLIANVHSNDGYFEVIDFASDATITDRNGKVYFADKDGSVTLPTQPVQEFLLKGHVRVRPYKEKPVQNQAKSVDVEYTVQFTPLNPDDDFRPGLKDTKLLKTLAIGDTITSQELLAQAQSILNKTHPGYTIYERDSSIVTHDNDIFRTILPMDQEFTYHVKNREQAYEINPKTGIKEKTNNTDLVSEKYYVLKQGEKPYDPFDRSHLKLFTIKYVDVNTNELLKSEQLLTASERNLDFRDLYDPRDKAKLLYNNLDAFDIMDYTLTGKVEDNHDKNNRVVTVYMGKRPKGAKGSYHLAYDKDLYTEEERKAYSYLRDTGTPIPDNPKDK

Streptococcus = experiment: Group A Streptococcus viability loss, dose response, counter-screen for streptokinase expression inhibitor project, luminescence, BacTiterGlo (AID 1915); type: functional, organism-based;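 also: potency for reduction of bacterial viability or growth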
[6] = tested on: Streptococcus sp. 'group A'; experiment: growth inhibition of control SK(-) GAS strain, dose response, counter-screen for streptokinase expression inhibitor project, luminescence, kanamycin, BacTiterGlo, confirmation (AID 1900); type: functional, organism-based
[7] = HEp-2 cell cytotoxicity, dose response, cytotoxicity control for RSV inhibitor project, HTS (AID 2410); type: functional; conditions: human respiratory syncytial virus
[8] = control 3'UTR Renilla luciferase suppression, dose response, counter-screen for Shn3 inhibitor project, cell-based, Clone20-Shn3RL, cherry-picked (AID 624133); type: functional
[9] = Shn3 3'UTR reporter inhibitors, dose response, cell-based, Clone20 osteoblasts, firefly luciferase, cherry-picked (AID 624132); type: functional;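 also: firefly luciferase luminescence from reporter carrying the Shn3 3'UTR in osteoblasts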
[10] = HepG2 cell cytotoxicity, dose response, cytotoxicity control for Shn3 inhibitor project, CellTiter-Glo, cherry-picked (AID 624134); type: functional, cell-based
[11] = target: T5, Rac GTPase-activating protein 1 (Homo sapiens, UniProt Q9H0H5); experiment: MgcRacGAP GTPase-activating activity inhibitors, confirmation, biochemical, ADP Hunter fluorescence, primary and confirmatory (AID 624330); type: functional
T5 sequence (Q9H0H5 whole entry): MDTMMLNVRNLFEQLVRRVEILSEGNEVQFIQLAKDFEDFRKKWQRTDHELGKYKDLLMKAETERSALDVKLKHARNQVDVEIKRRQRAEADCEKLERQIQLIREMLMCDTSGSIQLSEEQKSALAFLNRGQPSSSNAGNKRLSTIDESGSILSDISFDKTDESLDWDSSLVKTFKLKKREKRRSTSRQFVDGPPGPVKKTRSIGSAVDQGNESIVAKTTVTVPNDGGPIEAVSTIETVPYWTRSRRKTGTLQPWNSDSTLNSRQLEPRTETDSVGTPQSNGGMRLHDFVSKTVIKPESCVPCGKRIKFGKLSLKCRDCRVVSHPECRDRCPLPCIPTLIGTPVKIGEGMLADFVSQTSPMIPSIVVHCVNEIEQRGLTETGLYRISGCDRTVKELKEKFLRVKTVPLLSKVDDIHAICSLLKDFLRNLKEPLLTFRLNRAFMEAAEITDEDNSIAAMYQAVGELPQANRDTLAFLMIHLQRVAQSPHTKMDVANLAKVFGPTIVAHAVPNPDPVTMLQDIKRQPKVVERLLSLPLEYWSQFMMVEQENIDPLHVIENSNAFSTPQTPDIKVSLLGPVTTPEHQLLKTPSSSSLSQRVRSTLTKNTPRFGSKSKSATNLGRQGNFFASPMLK

[12] = Luminescence Cell-Based Dose Confirmation HTS to Identify Activators of 5'UTR Stem-Loop Driven Alpha-Synuclein mRNA Translation in H4 Neuroglioblastoma Cells. [Related pubchem assays: 1829 (Project Summary), 1814 (Primary HTS)]; type: functional
[13] = Luminescence Cell-Based Dose Response HTS to Identify Activators of Luciferase Translation or Activity in H4 […] Cells. [Related pubchem assays: 1829 (Project Summary), 1814 (Primary HTS)]; type: functional
H4 = experiment: Luminescence Cell-Based Dose Response HTS to Identify Activators of 5'UTR Stem-Loop Driven Prion Protein mRNA Translation in H4 Neuroglioblastoma Cells. [Related pubchem assays: 1829 (Project Summary), 1814 (Primary HTS)]; type: functional; conditions: Homo sapiens

O=C(Nc1ccccc1)C1=C[C@@H](c2ccc(C(F)(F)F)cc2)C[C@@H](OCc2ccc(CO)cc2)O1
AC50 [1]: 5.5 µM (active)

O=[N+]([O-])c1ccc(OC/C=C2\Oc3ccc([N+](=O)[O-])cc3C2N2CCOCC2)cc1 (stereo not given)
IC50 [2]: 6.21 µM (not active) | IC50 (Protein skinhead-1): > 100 µM (inactive)

COc1cc(/C=C2/CCC/C(=C\c3cc(O)c(OC)c(Cl)c3)C2=O)cc(Cl)c1O
AC50 [1]: 0.629 µM (active)

N#Cc1nc(COc2ccccc2)oc1N1CCN(c2cccc(Cl)c2)CC1
IC50 [2]: 34.3 µM (not active)

Cc1ccc(NC(=O)Cc2ccc(-n3cccc3)cc2)c(C)c1
EC50 [3]: > 195 µM (not active)

O=C1Nc2ccccc2C1=Nc1ccc(-c2nnc3n2CCCCC3)cc1
EC50 [4]: > 112 µM (not active) | EC50 [5]: > 112 µM (not active)

O=C(NCC(=O)N1CCN(c2ccccc2O)CC1)c1ccc(Br)o1
EC50 [3]: > 195 µM (not active)

Cc1ccc(-c2nnc(SCC(=O)Nc3nccs3)n2N)cc1
EC50 [3]: > 195 µM (not active)

O=C(Cc1c[nH]c2ccccc12)N/N=C/c1ccccc1O
EC50 [4]: > 112 µM (not active) | EC50 [5]: > 112 µM (not active)

CC1(C)c2ccccc2-n2c1cc1oc(=O)cc(O)c1c2=O
EC50 (Streptokinase A): > 150 µM (not active) | EC50 (Streptococcus): > 150 µM (not active) | IC50 [2]: 1.02 µM (not active) | EC50 [6]: > 150 µM (not active)

Cc1ccc(/C=C\c2[nH]ccc3c4ccccc4nc2-3)cc1
CC50 [7]: 28.9 µM (active) | AC50 [1]: 17.4 µM (active)

CCN(CC)c1ccc(/C=C2/SC(=O)N(C(C)C)C2=O)o1
AC50 [8]: 7.5 µM (active) | AC50 [9]: 3.46 µM (active) | AC50 [10]: 58.9 µM (active) | IC50 [11]: 48.2 µM (active)

CC(OC(=O)c1nsc(Cl)c1Cl)C(=O)NCc1ccc2c(c1)OCO2 (stereo not given)
EC50 [3]: > 195 µM (not active)

Oc1ccc(N=Nc2ccc(Br)cc2)c(O)c1
AC50 [1]: 4.2 µM (active)

COc1ccc(N(CC(=O)N/N=C/c2ccc(-c3ccc([N+](=O)[O-])cc3)o2)S(=O)(=O)c2ccc(C)cc2)cc1
EC50 [4]: > 112 µM (not active) | EC50 [5]: > 112 µM (not active)

COc1ccc(-n2c(C)c(C(C)=O)c(C(C)=O)c2C)cc1
EC50 [3]: > 195 µM (not active)

COc1ccc(Cn2nnnc2CN2CCc3ccccc3C2)cc1
EC50 [3]: > 195 µM (not active)

Cc1cc(C)c2oc(C(=O)Nc3ccc(S(=O)(=O)Nc4nccc(C)n4)cc3)cc(=O)c2c1
EC50 [3]: > 195 µM (not active)

Cc1ccc(-c2nc(NCc3ccco3)c3ccccc3n2)cc1
IC50 [2]: 7.69 µM (not active) | AC50 [1]: 9.72 µM (active)

COC(=O)c1ccc(S(=O)(=O)N2CCCN(Cc3ccccc3)CC2)n1C
AC50 [8]: 28 µM (active) | AC50 [9]: 51.1 µM (active) | AC50 [10]: 69.6 µM (active)

COC(=O)C1(Cc2ccccc2)NC(c2ccccc2C)C2C(=O)N(c3ccc4c(c3)OCO4)C(=O)C21 (stereo not given)
EC50 [3]: > 195 µM (not active)

O=C(CN1CCN(C(=O)c2ccccc2)CC1)Nc1ncc(Br)cc1Br
EC50 [3]: > 195 µM (not active)

COc1cc(F)c(C2=CC(=O)C[C@H](c3ccc(Cl)cc3)C2)cc1F
AC50 [1]: 1.43 µM (active)

CCOCC(=O)Nc1nnc(C2CCCCC2)s1
EC50 [12]: > 120 µM (not active) | EC50 [13]: 83 µM (active) | EC50 (H4): > 120 µM (not active)

COc1ccccc1/C=N/NC(=S)NCc1ccco1
IC50 [2]: 8.4 µM (active)

COc1cc(Cl)c(C)cc1NC(=O)CNC(C)c1ccccc1OC (stereo not given)
IC50 [2]: > 50 µM (not active)

O=S(=O)(c1cccs1)N1CCN(CCOc2ccc(Cl)cc2)CC1
AC50 [8]: 23.9 µM (active) | AC50 [9]: 13.8 µM (active) | AC50 [10]: 37.6 µM (active)

O=C(Nc1cccc2oc(=O)ccc12)c1ccc([N+](=O)[O-])cc1[N+](=O)[O-]
IC50 [2]: 5.83 µM (active)

COc1ccc(CNC(=O)CCCn2nc([N+](=O)[O-])cc2C)cc1
IC50 [2]: < 0.4 µM (not active)

Sc1nnc(Cn2c(-c3ccccn3)nc3ccccc32)n1-c1ccc2c(c1)OCCO2
EC50 [12]: 12.5 µM (active) | EC50 [13]: 14.9 µM (active) | EC50 (H4): 29.5 µM (active)
